Source: publication PMC10373478, “Exploration and Exploitation Approaches Based on Generative Machine Learning to Identify Potent Small Molecule Inhibitors of α-Synuclein Secondary Nucleation” (Journal of Chemical Theory and Computation, 2023)

Molecular target: T1, α-synuclein (αS) (Homo sapiens, UniProt P37840)
T1 construct: gene SNCA
Assay: seeded aggregation kinetics (ThT fluorescence) at […] compound
Format: biochemical

CN1C(C(=O)Nc2ccccn2)=C(O)c2sc(Cl)cc2S1(=O)=O [lornoxicam]
seeded aggregation kinetics (ThT fluorescence) at 25 and 50 μM compound: The potency of lornoxicam was mild in comparison to hits found previously, but it was nonetheless observable
